These results are taken from US10085449B2, “N-[1-((6-chloropyridin-3-yl)methyl)pyridin-2(1H)-ylidene]-2,2,2- trifluoroacetamide for control of agricultural/horticultural pests” (priority 2010, dated 2018).

SMILES strings stand for the structures. Read-outs that look alike come from different tables or passages of the source. Some results are limits rather than exact numbers.

The test system of data set [1] is canine heartworm microfilariae. The data set is described as follows: Effects on canine heartworm (motility of microfilariae). Also noted: key: At least two-thirds of the heartworms died; B: Substantially all the heartworms were affected in some way, or at least one-third died; C: No influence, or less than one-third of the heartworms died. To be noted: 3.13 ppm in RPMI1640 liquid culture medium, 37° C., observed for 48 hours. The procedure:
The activities of the compounds were evaluated based on changes in the motility of microfilariae in canine heartworm. The respective compounds were dissolved in a RPMI1640 liquid culture medium to a concentration of 3.13 ppm, following which about 20 canine heartworm microfilariae were placed in each culture fluid and cultured at 37° C.
Criteria A: At least two-thirds of the heartworms died • B: Substantially all the heartworms were affected in some way, or at least one-third died • C: No influence, or less than one-third of the heartworms died

The test system of another data set is rice leaf bug. The data set is described as follows: whole plant or invertebrate. The format is in vivo. To be noted: foliar, 72 h. How it is done:
The treated seedlings were air-dried, then each was placed in a glass cylinder and two second-instar rice leaf bug larvae were released within the same glass cylinder. Following release of the insects, the tube was capped and held in an incubation chamber at 25° C. (16-hour period of light, 8-hour dark period). […] Three days after released, the numbers of live and dead insects were counted, and the mortality was calculated from the following formula. Mortality (%)=[number of dead insects/(number of live insects+number of dead insects)]×100

Data set [2] has as its system small brown planthopper. As to the kind of experiment: whole plant or invertebrate. The settings on record: Laodelphax striatellus, 72 h; for pest or weed control at 0.005 mg/pot / pest or weed control at 0.01 mg/pot / pest or weed control at 0.05 mg/pot: rice soil drenching, read-out: Small brown planthopper (rice soil drenching), effect; for pest or weed control at 0.005 mg/pot: 0.005 mg/pot (Table 13); for pest or weed control at 0.01 mg/pot: 0.01 mg/pot (Table 13); for pest or weed control at 0.05 mg/pot: 0.05 mg/pot (Table 13); for mortality at 0.05 mg/seedling / mortality at 0.005 mg/pot / mortality at 0.01 mg/pot / mortality at 0.05 mg/pot: soil; for mortality at 0.005 mg/pot / mortality at 0.01 mg/pot / mortality at 0.05 mg/pot: read-out: Insecticidal effects (mortality), small brown planthopper second-instar larvae. The format is in vivo. The procedure:
(§1) Rice seedlings grown in pots were subjected to soil drenching treatment with solutions of the inventive compounds at a predetermined concentration prepared to 10% acetone/water. Three days following treatment, ten second-instar small brown planthopper larvae were released onto each seedling. The treated seedlings and larvae were then held in an incubation chamber at 25° C. (16-hour period of light, 8-hour dark period). Three days after released, the numbers of live and dead insects were counted, and the mortality was calculated from the following formula. The test was carried out as two replications. Mortality (%)=[number of dead insects/(number of live insects+number of dead insects)]×100

The subject of another data set is common cutworm. As to the kind of experiment: whole plant or invertebrate. The format is in vivo. To be noted: for Insecticidal effects (mortality), common cutworm third-instar larvae: foliar application. How it is done:
(§2) Leaf discs 5.0 cm in diameter were cut from cabbage plants grown in pots, and these were sprayed with solutions of the inventive compounds at a predetermined concentration prepared to 50% acetone/water (containing 0.05% Tween 20). The treated leaf discs were air dried, following which third-instar larvae were released onto the discs. The leaf discs and larvae were then held in an incubation chamber at 25° C. (16-hour period of light, 8-hour dark period). Three days after released, the numbers of live and dead insects were counted, and the mortality was calculated from the following formula. This was a two-replication test. Mortality (%)=[number of dead insects/(number of live insects+number of dead insects)]×100

Another data set relates to cotton aphid. The data set is described as follows: whole plant or invertebrate. The format is in vivo. To be noted: Aphis gossypii, foliar. How it is done:
as §2, with “2.0” for “5.0”, “cucumber” for “cabbage”, “first-instar” for “third-instar”

A further data set relates to western flower thrips. As to the kind of experiment: whole plant or invertebrate. The format is in vivo. To be noted: Frankliniella occidentalis, foliar. The procedure:
as §2, with “2.8” for “5.0”, “bean” for “cabbage”, “first-instar” for “third-instar”

The subject of data set [3] is small brown planthopper. The data set is described as follows: whole plant or invertebrate. The format is in vivo. To be noted: Laodelphax striatellus, in Triticum aestivum, 96 h; for mortality at 0.5 mg/seedling / mortality at 2 mg/seedling / mortality at 20 mg/seedling: read-out: Insecticidal effects (mortality), small brown planthopper second-instar larvae. The procedure:
as §1, with “Wheat seedling roots 48 hours after sowing” for “Rice seedlings grown in pots”, “treated” for “subjected to soil drenching treatment”, “After allowing the roots to absorb the chemical for 72 hours,” for “Three days following treatment,”, “Four” for “Three”

Data set [4] has as its system small brown planthopper. As to the kind of experiment: whole plant or invertebrate. The format is in vivo. The settings on record: Laodelphax striatellus, foliar. The procedure:
as §2, with “Rice seedlings” for “Leaf discs 5.0 cm in diameter were cut from cabbage plants”, “pots” for “pots, and these”, “subjected to the foliar application of” for “sprayed with”, “seedlings” for “leaf discs”, “second-instar” for “third-instar”, “seedlings.” for “discs.”

Another data set deals with diamondback moth. As to the kind of experiment: whole plant or invertebrate. The format is in vivo. To be noted: Plutella xylostella, foliar. How it is done:
as §2, with “second-instar” for “third-instar”

In the next data set the test system is greenhouse whitefly. The data set is described as follows: whole plant or invertebrate. The format is in vivo. To be noted: 20 ppm foliar application, eggs on cucumber leaf discs, 14 days after spraying. The procedure: Adult greenhouse whiteflies were released onto cucumber plants grown in pots, and allowed to laid eggs overnight. One day after the start of oviposition, the adults were removed, and the plants and eggs were held in an incubation chamber at 25° C. (16-hour period of light, 8-hour dark period). Three days after the end of oviposition, leaf discs 2.0 cm in diameter were cut from the cucumber plants and, after confirming oviposition thereon, the leaf discs were sprayed with solutions of the inventive compounds at a predetermined concentration prepared to 50% acetone/water (containing 0.05% Tween 20). After spraying, the treated leaf discs were held in an incubation chamber at 25° C. (16-hour period of light, 8-hour dark period). Fourteen days after spraying, the numbers of live and dead insects were counted, and the mortality was calculated from the following formula. This was a two-replication test. Mortality (%)=[(number of oviposited eggs−number of live insects)/number of oviposited eggs]×100

For data set [5], the system named is small brown planthopper having a low susceptibility to insecticides. As to the kind of experiment: Small brown planthopper control test, pests having a low susceptibility to insecticides (soil drenching). The format is in vivo. To be noted: 0.01 mg/seedling soil drenching. How it is done:
as §1, with “days after” for “days following”, “larvae having a low susceptibility to insecticides” for “larvae”, “The” for “The treated”, “and insects” for “and larvae”
The pests used in this test were insects that had been raised indoors for successive generations over a long period of time (susceptible line), and insects that had been raised indoors for successive generations after being collected in 2006 within Kumamoto Prefecture (field-collected line).

[6] abbreviates: read-out: Insecticidal effects (mortality), cotton aphid first-instar larvae.
The mark [7] stands for this setting: read-out: Insecticidal effects (mortality), western flower thrips first-instar larvae.
[8] abbreviates: read-out: Insecticidal effects (mortality), small brown planthopper second-instar larvae.
Setting [9] is: read-out: Insecticidal effects (mortality), diamondback moth second-instar larvae.

In the case of `CCSC(=S)SCCN(C#N)Cc1ccc(Cl)nc1` [Compound 7], the “Microfilaricidal effect (motility rating)” value (from here on “Microfilaricidal effect”) in data set [1] was “B”.

For `O=C(N=c1ccccn1Cc1ccc(Br)nc1)C(F)(F)F` [Compound 231, N-[1-((6-bromopyridin-3-yl)methyl)pyridin-2(1H)-ylidene]-2,2,2-trifluoroacetamide], the mortality (commonly the share of the test organisms that died) at 50 ppm in the data set on rice leaf bug is at least 80%. In the data set with small brown planthopper [2], the pest or weed control at 0.005 mg/pot was 70%, the pest or weed control at 0.01 mg/pot was 100%, the pest or weed control at 0.05 mg/pot came to 100% and the mortality at 0.05 mg/seedling was at least 80%. In the data set on small brown planthopper [2], the mortality at 0.005 mg/pot came to 70%, the mortality at 0.01 mg/pot came out at 100% and the mortality at 0.05 mg/pot came out at 100%. Besides, in the data set on common cutworm (100 ppm), the “Insecticidal effects (mortality), common cutworm third-instar larvae” value (“Insecticidal effects (mortality)” below) worked out at 0. For the same compound, the “Insecticidal effects (mortality)” value in the data set on common cutworm (500 ppm) is 0. Also, in the data set with cotton aphid (setting [6]), the mortality at 1.25 ppm was determined as 74%, the mortality at 5 ppm came to 100% and the mortality at 20 ppm stood at 100%. Moreover, the mortality at 20 ppm in the data set with cotton aphid (in Cucumis sativus, 72 h) was at least 80%. In the data set on western flower thrips (72 h), the mortality at 500 ppm is at least 80%. For the same compound, in the data set on western flower thrips (setting [7]), the mortality at 100 ppm stood at 55% and the mortality at 500 ppm turned out to be 85%. In the data set on small brown planthopper [3], the mortality at 20 µg/seedling was at least 80%, the mortality at 0.5 mg/seedling stood at 25%, the mortality at 2 mg/seedling is 75% and the mortality at 20 mg/seedling turned out to be 100%. Further, the mortality at 100 ppm in the data set with small brown planthopper [4] (setting [8]) came to 100%. Further, in the data set on diamondback moth (setting [9]), the mortality at 20 ppm was 100% and the mortality at 100 ppm was determined as 100%. Further, the mortality at 100 ppm in the data set with diamondback moth (in Brassica oleracea, 72 h) is at least 80%.

In the case of `O=C(N=c1ccccn1Cc1cnc(Cl)s1)C(F)(F)F` [Compound 213], the Mortality entry with greenhouse whitefly is “at least 80%”.

Turning to `CSC(=S)SCCN(C#N)Cc1ccc(Cl)nc1` [Compound 6, 2-[N-(6-chloro-3-pyridylmethyl)cyanamide] ethyl methylcarbonotrithioate], the “Microfilaricidal effect” value in data set [1] is “B”.

For the compound `CCCSC(=S)SCCN(C#N)Cc1ccc(Cl)nc1` [Compound 8], the “Microfilaricidal effect” value in data set [1] is on record as “B”.

On to `N#Cc1nn(-c2c(Cl)cc(C(F)(F)F)cc2Cl)c(N)c1[S+]([O-])C(F)(F)F` (stereo not shown) [fipronil], for which the values for the Mortality in [5] (field-collected line (2006 Kumamoto Prefecture)) and in data set [5] (susceptible line) were 70% and 100%, respectively.

In turn, `O=C(N=c1ccccn1Cc1cnc(Cl)c(F)c1)C(F)(F)F` [Compound 227, N-[1-((6-chloro-5-fluoropyridin-3-yl)methyl)pyridin-2(1H)-ylidene]-2,2,2-trifluoroacetamide] yielded a mortality at 50 ppm in the data set with rice leaf bug of at least 80%. Moreover, in the data set on small brown planthopper [2], the pest or weed control at 0.005 mg/pot stood at 75%, the pest or weed control at 0.01 mg/pot is 100%, the pest or weed control at 0.05 mg/pot came out at 90% and the mortality at 0.05 mg/seedling is at least 80%. Further, in the data set on small brown planthopper [2], the mortality at 0.005 mg/pot stood at 75%, the mortality at 0.01 mg/pot is 100% and the mortality at 0.05 mg/pot is 90%. Besides, in the data set with common cutworm (100 ppm), the “Insecticidal effects (mortality)” value worked out at 56. In addition, the “Insecticidal effects (mortality)” value in the data set on common cutworm (500 ppm) came out at 100. Moreover, in the data set with common cutworm (foliar, 72 h), the mortality at 500 ppm is at least 80%. Also, in the data set on cotton aphid (setting [6]), the mortality at 1.25 ppm was determined as 95%, the mortality at 5 ppm is 100%, the mortality at 20 ppm came out at 100% and the mortality at 100 ppm worked out at 100%. The mortality at 500 ppm in the data set on cotton aphid (setting [6]) came out at 100%. In the data set with cotton aphid (in Cucumis sativus, 72 h), this compound displayed a mortality at 20 ppm of at least 80%, a mortality at 100 ppm of at least 80% and a mortality at 500 ppm of at least 80%. Besides, in the data set on western flower thrips (72 h), the mortality at 500 ppm is at least 80%. Also, in the data set on western flower thrips (setting [7]), the mortality at 100 ppm is 65% and the mortality at 500 ppm is 90%. In addition, in the data set on small brown planthopper [3], the mortality at 20 µg/seedling is at least 80%, the mortality at 0.5 mg/seedling is 50%, the mortality at 2 mg/seedling was determined as 75% and the mortality at 20 mg/seedling stood at 100%. Further, the mortality at 5 ppm in the data set with small brown planthopper [4] (setting [8]) was 100%. The same compound returned a mortality at 100 ppm with small brown planthopper [4] (in Oryza sativa, 72 h) of at least 80%. Moreover, in the data set with diamondback moth (setting [9]), the mortality at 20 ppm was found to be 100%, the mortality at 100 ppm amounted to 100% and the mortality at 500 ppm came out at 100%. Further, in the data set on diamondback moth (in Brassica oleracea, 72 h), the mortality at 100 ppm is at least 80% and the mortality at 500 ppm was at least 80%.
